Laboratory results taken from ChEMBL document CHEMBL5370565, “Inhibition of Cysteine Proteases via Thiol-Michael Addition Explains the Anti-SARS-CoV-2 and Bioactive Properties of Arteannuin B” (J Nat Prod, 2023).
Calls of active or inactive are those of the source. The rule behind the calls is not given here.

How the values were obtained:
[1] = test system: SARS-CoV-2; test: Antiviral activity against SARS-CoV-2 GX_P2V infected in African green monkey Vero E6 cells assessed as reduction in viral yield pretreated with cells for 2 hrs followed by viral infection and measured after 72 hrs by qRT-PCR analysis; assay type: functional, organism-based; conditions: Severe acute respiratory syndrome coronavirus 2, GX_P2V, Vero C1008
[2] = target: Caspase-8 (Homo sapiens) (UniProt Q14790); test: Inhibition of C-terminal 6his tagged human Caspase 8 activity expressed in Escherichia coli BL21 (DE3) cells at 50 uM preincubated for 30 mins by LC-MS analysis
Chain of Caspase-8 (Homo sapiens) (Q14790 217-374 limits assumed): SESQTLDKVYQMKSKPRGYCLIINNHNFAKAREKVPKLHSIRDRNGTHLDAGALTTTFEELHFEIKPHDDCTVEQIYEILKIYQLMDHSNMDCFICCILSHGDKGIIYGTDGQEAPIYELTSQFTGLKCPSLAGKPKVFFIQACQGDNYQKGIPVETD
Chain of Caspase-8 (Homo sapiens) (Q14790 385-479 limits assumed): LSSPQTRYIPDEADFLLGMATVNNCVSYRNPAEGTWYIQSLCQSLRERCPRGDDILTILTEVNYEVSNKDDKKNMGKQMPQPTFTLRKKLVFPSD

[3] = test system: Severe acute respiratory syndrome coronavirus 2; test: Inhibition of C-terminal 6his-tagged/N-terminal strepII-tagged SARS-CoV-2 NSP5 expressed in Escherichia coli BL21 (DE3) cells using (4-Fluoro-F)LQS as substrate assessed as (4-fluoro-F)L production at 48 uM preincubated with compound for 60 mins followed by substrate addition and measured after 300 mins by LC-MS analysis relative to control; conditions: time 360.0 min
[4] = test system: Glioblastoma cell line; test: Cytotoxicity against glioblastoma (unknown origin) cells assessed as reduction in cell viability at 35 uM incubated for 24 hrs by eFluor 780 fixable viability dye based flow cytometric analysis; assay type: functional

Structure (SMILES)	EC50 [1] [µM]	inhibition [2]	inhibition [3] [%]	Activity [4]
C=C1C(=O)O[C@@]23C1CC[C@@H](C)[C@@H]2CC[C@@]1(C)O[C@@H]31 (stereo not given in full)	8.84	Active	45	Active
C[C@@H]1CC[C@H]2[C@H](C)C(=O)O[C@]23[C@H]1CC[C@@]1(C)O[C@@H]31				inactive
